From US20260001889A1, “COMPOSITIONS USEFUL FOR MODULATING SPLICING” (Skyhawk Therapeutics, Inc., priority 2022, published 2026)
pEC50, pIC50: −log10 of the molar value.

How the values were obtained:
[1] = system: ATXN3 transcripts containing exon 4; assay: ATXN3 Quantitative Splicing Assay (qPCR, E4E5 primers/probe); assay type: cell-based; settings: Homo sapiens, SK-N-MC cells, compounds for 24 h
How it was run: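 SK-N-MC human neuroblastoma cells treated 24 h with compound from 30 μM to 0.6 nM, 24 h after plating. Lysate cDNA was run in TaqMan qPCR, with primers/probe E4E5 detecting exon 4-containing ATXN3 transcripts and E8E9 measuring total ATXN3.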

total ATXN3 protein = assay: ATXN3 Total Protein Assay (Mesoscale Discovery, SK-N-MC cells); assay type: cell-based, Human; settings: incubation for 48 hours, MSD assay
How it was run: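 Human SK-N-MC neuroblastoma cells treated with compound at 30 μM to 0.6 nM for 48 h, then lysed with protease inhibitors. Total ATXN3 quantified by MSD sandwich immunoassay (mouse capture, rabbit detect antibodies, anti-rabbit MSD-ST secondary) against recombinant ATXN3 standards.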

ATXN3-HiBiT protein = assay: ATXN3 Total Protein Assay (Kelly-ATXN3-HiBiT luminescence); assay type: cell-based; settings: Kelly-ATXN3-HiBiT cells, 48 h after addition of compound
How it was run: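 Kelly cells with homozygous C-terminal HiBiT knock-in on endogenous ATXN3, 2000 per well, dosed 24 h after seeding. HiBiT lytic luminescence read 48 h after compound; sister plate read with CellTiter-Glo for viability; fold change vs DMSO.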

| SMILES | pIC50 [1] | pIC50 (total ATXN3 protein) | pEC50 (ATXN3-HiBiT protein) |
| --- | --- | --- | --- |
| C[C@H](F)[C@H](N)Cc1oc2c(NCc3ccccc3)cc(Cl)nc2c1Cl [Compound 110, 2-[(2R,3S)-2-amino-3-fluorobutyl]-7-benzylamino-3,5-dichloro-1-oxa-4-azaindene] | 6.30 to 7.00 | 6.30 to 7.00 | 6.30 to 7.00 |
| Cc1c(C[C@@H](N)[C@H](C)F)oc2c(NCc3cccs3)cc(C#N)nc12 [Compound 111, 2-[(2R,3S)-2-amino-3-fluorobutyl]-3-methyl-7-thenylamino-1-oxa-4-aza-5-indenecarbonitrile] | 6.30 to 7.00 | 6.30 to 7.00 | 6.30 to 7.00 |
| C#Cc1cc(NCc2ccco2)c2oc(C[C@H](C)N)c(Br)c2n1 [Compound 112, 2-[(S)-2-aminopropyl]-3-bromo-5-ethynyl-7-(furfurylamino)-1-oxa-4-azaindene] | 6.30 to 7.00 | 6.30 to 7.00 | 7.00 to 11.00 |
| COC[C@H](N)Cc1oc2c(NCc3ccncc3)cc(Cl)nc2c1Cl [Compound 113, 2-[(R)-2-amino-3-methoxypropyl]-3,5-dichloro-7-{[(4-pyridyl)methyl]amino}-1-oxa-4-azaindene] | 6.30 to 7.00 | 6.30 to 7.00 | 6.30 to 7.00 |
| C[C@@H](F)[C@H](N)Cc1oc2c(NCc3ccco3)cc(Cl)nc2c1Br [Compound 114, 2-[(2R,3R)-2-amino-3-fluorobutyl]-3-bromo-5-chloro-7-(furfurylamino)-1-oxa-4-azaindene] | 5.30 to 6.30 | 5.30 to 6.30 | 5.30 to 6.30 |
| N[C@@H](COC1CC1)Cc1oc2c(NCc3cccs3)cc(Cl)nc2c1Br [Compound 115, 2-[(R)-2-amino-3-cyclopropoxypropyl]-3-bromo-5-chloro-7-thenylamino-1-oxa-4-azaindene] | 6.30 to 7.00 | 6.30 to 7.00 | 6.30 to 7.00 |
| N[C@@H](COC(F)(F)F)Cc1oc2c(NCc3cccs3)cc(Cl)nc2c1Br [Compound 116, 2-[(R)-2-amino-3-trifluoromethoxypropyl]-3-bromo-5-chloro-7-thenylamino-1-oxa-4-azaindene] | 6.30 to 7.00 | 6.30 to 7.00 | 5.30 to 6.30 |
| N[C@@H](COC(F)F)Cc1oc2c(NCc3cccs3)cc(Cl)nc2c1Br [Compound 117, 2-[(R)-2-amino-3-difluoromethoxypropyl]-3-bromo-5-chloro-7-thenylamino-1-oxa-4-azaindene] | 7.00 to 11.00 | 7.00 to 11.00 | 7.00 to 11.00 |
| C[C@H](F)[C@H](N)Cc1oc2c(NCc3ccco3)cc(Cl)nc2c1Br [Compound 118, 2-[(2R,3S)-2-amino-3-fluorobutyl]-3-bromo-5-chloro-7-(furfurylamino)-1-oxa-4-azaindene] | 7.00 to 11.00 | 7.00 to 11.00 | 7.00 to 11.00 |
| C[C@H](F)[C@H](N)Cc1oc2c(NCc3ccncc3)cc(Cl)nc2c1Br [Compound 119, 2-[(2R,3S)-2-amino-3-fluorobutyl]-3-bromo-5-chloro-7-{[(4-pyridyl)methyl]amino}-1-oxa-4-azaindene] | 7.00 to 11.00 | 7.00 to 11.00 | 6.30 to 7.00 |
| C#Cc1c(C[C@@H](N)CC(F)(F)F)oc2c(NCc3ccco3)cc(Cl)nc12 [Compound 120, 2-[(R)-2-amino-4,4,4-trifluorobutyl]-5-chloro-3-ethynyl-7-(furfurylamino)-1-oxa-4-azaindene] | 6.30 to 7.00 | 6.30 to 7.00 | 5.30 to 6.30 |
| C#Cc1c(C[C@@H](N)CC(F)(F)F)oc2c(NCc3cccs3)cc(Cl)nc12 [Compound 121, 2-[(R)-2-amino-4,4,4-trifluorobutyl]-5-chloro-3-ethynyl-7-thenylamino-1-oxa-4-azaindene] | 6.30 to 7.00 | 6.30 to 7.00 | 6.30 to 7.00 |
| C#Cc1c(C[C@@H](N)[C@H](C)F)oc2c(NCc3ccco3)cc(Cl)nc12 [Compound 122, 2-[(2R,3S)-2-amino-3-fluorobutyl]-5-chloro-3-ethynyl-7-(furfurylamino)-1-oxa-4-azaindene] | 7.00 to 11.00 | 7.00 to 11.00 | 7.00 to 11.00 |
| C#Cc1c(C[C@@H](N)[C@H](C)F)oc2c(NCc3cccs3)cc(Cl)nc12 [Compound 123, 2-[(2R,3S)-2-amino-3-fluorobutyl]-5-chloro-3-ethynyl-7-thenylamino-1-oxa-4-azaindene] | 7.00 to 11.00 | 7.00 to 11.00 | 7.00 to 11.00 |
| C[C@H](N)Cc1oc2c(NCc3ncco3)cc(Cl)nc2c1Br [Compound 124, 2-[(2S)-2-aminopropyl]-3-bromo-5-chloro-N-(1,3-oxazol-2-ylmethyl) furo[3,2-b]pyridin-7-amine] | 5.30 to 6.30 | 5.30 to 6.30 | 5.30 to 6.30 |
| C[C@H](O)[C@H](N)Cc1oc2c(NCc3cccs3)cc(Cl)nc2c1Br [Compound 125, (2S,3R)-3-amino-4-(3-bromo-5-chloro-7-thenylamino-1-oxa-4-aza-2-indenyl)-2-butanol] | 7.00 to 11.00 | 7.00 to 11.00 | 7.00 to 11.00 |

| SMILES | pIC50 [1] | pIC50 (total ATXN3 protein) | pEC50 (ATXN3-HiBiT protein) |
| --- | --- | --- | --- |
| C[C@@H](O)[C@H](N)Cc1oc2c(NCc3cccs3)cc(Cl)nc2c1Br [Compound 126, (2R,3R)-3-amino-4-(3-bromo-5-chloro-7-thenylamino-1-oxa-4-aza-2-indenyl)-2-butanol] | 6.30 to 7.00 | 6.30 to 7.00 | 6.30 to 7.00 |
| N[C@@H](CCO)Cc1oc2c(NCc3cccs3)cc(Cl)nc2c1Br [Compound 131, (S)-3-amino-4-(3-bromo-5-chloro-7-thenylamino-1-oxa-4-aza-2-indenyl)-1-butanol] | 6.30 to 7.00 | 7.00 to 11.00 | 7.00 to 11.00 |
| CC#C[C@H](N)Cc1oc2c(NCc3cccs3)cc(Cl)nc2c1Br [Compound 132, 2-[(R)-2-amino-3-pentynyl]-3-bromo-5-chloro-7-thenylamino-1-oxa-4-azaindene] | 5.30 to 6.30 | 6.30 to 7.00 | 5.30 to 6.30 |
| N[C@H](Cc1oc2c(NCc3cccs3)cc(Cl)nc2c1Br)C1CC(F)(F)C1 [Compound 133, 2-[(R)-2-amino-2-(3,3-difluorocyclobutyl)ethyl]-3-bromo-5-chloro-7-thenylamino-1-oxa-4-azaindene] | 5.30 to 6.30 | 5.30 to 6.30 | 5.30 to 6.30 |
| N[C@H](Cc1oc2c(NCc3cccs3)cc(Cl)nc2c1Br)C1CC1 [Compound 134, 2-[(R)-2-amino-2-cyclopropylethyl]-3-bromo-5-chloro-7-thenylamino-1-oxa-4-azaindene] | 5.30 to 6.30 | 5.30 to 6.30 | 5.30 to 6.30 |
| C#Cc1c(C[C@@H](N)C2CC(F)(F)C2)oc2c(NCc3cccs3)cc(Cl)nc12 [Compound 139, 2-[(R)-2-amino-2-(3,3-difluorocyclobutyl)ethyl]-5-chloro-3-ethynyl-7-thenylamino-1-oxa-4-azaindene] | 5.30 to 6.30 | 5.30 to 6.30 | 5.30 to 6.30 |
| C[C@H](F)[C@H](N)Cc1oc2c(NCc3sccc3F)cc(Cl)nc2c1Cl [Compound 140, 2-[(2R,3S)-2-amino-3-fluorobutyl]-3,5-dichloro-7-{[(3-fluoro-2-thienyl)methyl]amino}-1-oxa-4-azaindene] | 6.30 to 7.00 | 6.30 to 7.00 | 6.30 to 7.00 |
| Cc1c(C[C@@H](N)[C@H](C)F)oc2c(NCc3sccc3F)cc(Cl)nc12 [Compound 142, 2-[(2R,3S)-2-amino-3-fluorobutyl]-5-chloro-7-{[(3-fluoro-2-thienyl)methyl]amino}-3-methyl-1-oxa-4-azaindene] | 6.30 to 7.00 | 6.30 to 7.00 | 6.30 to 7.00 |
| N[C@@H](CCF)Cc1oc2c(NCc3cccs3)cc(Cl)nc2c1Br [Compound 145, 2-[(R)-2-amino-4-fluorobutyl]-3-bromo-5-chloro-7-thenylamino-1-oxa-4-azaindene] | 6.30 to 7.00 | 6.30 to 7.00 | 6.30 to 7.00 |
| C[C@H](F)[C@H](N)Cc1oc2c(NCc3cccs3)cc(Cl)nc2c1Cl [Compound 148, 2-[(2R,3S)-2-amino-3-fluorobutyl]-3,5-dichloro-7-thenylamino-1-oxa-4-azaindene] | 7.00 to 11.00 | 7.00 to 11.00 | 7.00 to 11.00 |
| C[C@H](F)[C@H](N)Cc1oc2c(NCc3ccncc3F)cc(Cl)nc2c1Cl [Compound 149, 2-[(2R,3S)-2-amino-3-fluorobutyl]-3,5-dichloro-7-{[(3-fluoro-4-pyridyl)methyl]amino}-1-oxa-4-azaindene] | 6.30 to 7.00 | 6.30 to 7.00 | 6.30 to 7.00 |
| C[C@H](F)[C@H](N)Cc1oc2c(NCc3ccco3)cc(Cl)nc2c1Cl [Compound 150, 2-[(2R,3S)-2-amino-3-fluorobutyl]-3,5-dichloro-7-(furfurylamino)-1-oxa-4-azaindene] | 7.00 to 11.00 | 7.00 to 11.00 | 7.00 to 11.00 |
| C#Cc1cc(NCc2cccs2)c2oc(C[C@@H](N)COC)c(Br)c2n1 [Compound 151, 2-[(R)-2-amino-3-methoxypropyl]-3-bromo-5-ethynyl-7-thenylamino-1-oxa-4-azaindene] | 7.00 to 11.00 | 6.30 to 7.00 | 7.00 to 11.00 |
| C[C@H](F)[C@H](N)Cc1oc2c(NCc3ccccc3F)cc(Cl)nc2c1Br [Compound 152, 2-[(2R,3S)-2-amino-3-fluorobutyl]-3-bromo-5-chloro-7-{[(o-fluorophenyl)methyl]amino}-1-oxa-4-azaindene] | 6.30 to 7.00 | 6.30 to 7.00 | 5.30 to 6.30 |
| C[C@H](F)[C@H](N)Cc1oc2c(NCc3c(F)cccc3F)cc(Cl)nc2c1Br [Compound 153, 2-[(2R,3S)-2-amino-3-fluorobutyl]-3-bromo-5-chloro-7-{[(2,6-difluorophenyl)methyl]amino}-1-oxa-4-azaindene] | 4.40 to 5.00 | 5.00 to 5.30 | 4.40 to 5.00 |
